In ChEMBL document CHEMBL1909046, “DrugMatrix in vitro pharmacology data”:

What was measured:
Estrogen receptor = biological target: T1, Estrogen receptor (Homo sapiens, UniProt P03372); settings: sf9; further: in other assays of this panel Not Active means under 50% inhibition at 10 µM
T1 sequence (P03372 whole entry): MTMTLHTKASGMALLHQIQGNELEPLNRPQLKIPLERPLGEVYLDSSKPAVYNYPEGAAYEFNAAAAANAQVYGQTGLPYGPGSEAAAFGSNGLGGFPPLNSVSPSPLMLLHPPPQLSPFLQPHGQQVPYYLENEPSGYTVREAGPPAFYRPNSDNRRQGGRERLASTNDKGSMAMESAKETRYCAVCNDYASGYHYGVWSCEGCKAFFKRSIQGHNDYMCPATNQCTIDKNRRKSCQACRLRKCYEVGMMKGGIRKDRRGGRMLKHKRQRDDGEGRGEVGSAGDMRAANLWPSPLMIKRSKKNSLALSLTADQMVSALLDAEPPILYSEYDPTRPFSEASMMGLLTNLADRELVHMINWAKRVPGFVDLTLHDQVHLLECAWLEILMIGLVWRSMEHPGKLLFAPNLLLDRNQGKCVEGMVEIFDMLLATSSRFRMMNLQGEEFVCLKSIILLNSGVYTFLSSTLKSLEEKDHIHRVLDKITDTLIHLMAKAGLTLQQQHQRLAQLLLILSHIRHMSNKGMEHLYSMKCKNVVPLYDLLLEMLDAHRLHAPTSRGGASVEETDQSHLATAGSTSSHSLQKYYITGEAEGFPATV

[1] = DRUGMATRIX: ATPase, Na+/K+ enzyme inhibition (substrate: ATP); format: tissue-based, Sus scrofa, Heart; settings: Not Active = under 50% inhibition at 10 µM
[2] = DRUGMATRIX: Calcium Channel Type L, Benzothiazepine radioligand binding (ligand: [3H] Diltiazem); format: cell membranes, Rattus norvegicus, Wistar, Brain, Membrane; settings: Not Active = under 50% inhibition at 10 µM
[3] = DRUGMATRIX: Serotonin (5-Hydroxytryptamine) 5-HT3 radioligand binding (ligand: [3H] GR-65630); format: cell membranes, Membrane; settings: hek293; Not Active = under 50% inhibition at 10 µM
[4] = DRUGMATRIX: GABAA, Muscimol, Central radioligand binding (ligand: [3H] Muscimol); format: cell membranes, Rattus norvegicus, Wistar, Brain, Membrane; settings: Not Active = under 50% inhibition at 10 µM
[5] = DRUGMATRIX: Phosphodiesterase PDE4 enzyme inhibition (substrate: [3H]cAMP + cAMP); settings: u-937; Not Active = under 50% inhibition at 10 µM
Cytochrome P450 2C9 = Cytochrome P450 2C9 (Homo sapiens, UniProt P11712); settings: bti-tn-5b1-4; further: in other assays of this panel Not Active means under 50% inhibition at 10 µM
Cytochrome P450 2D6 = Cytochrome P450 2D6 (Homo sapiens, UniProt P10635); settings: bti-tn-5b1-4; further: in other assays of this panel Not Active means under 50% inhibition at 10 µM
Sequence of Cytochrome P450 2D6 (P10635 whole entry): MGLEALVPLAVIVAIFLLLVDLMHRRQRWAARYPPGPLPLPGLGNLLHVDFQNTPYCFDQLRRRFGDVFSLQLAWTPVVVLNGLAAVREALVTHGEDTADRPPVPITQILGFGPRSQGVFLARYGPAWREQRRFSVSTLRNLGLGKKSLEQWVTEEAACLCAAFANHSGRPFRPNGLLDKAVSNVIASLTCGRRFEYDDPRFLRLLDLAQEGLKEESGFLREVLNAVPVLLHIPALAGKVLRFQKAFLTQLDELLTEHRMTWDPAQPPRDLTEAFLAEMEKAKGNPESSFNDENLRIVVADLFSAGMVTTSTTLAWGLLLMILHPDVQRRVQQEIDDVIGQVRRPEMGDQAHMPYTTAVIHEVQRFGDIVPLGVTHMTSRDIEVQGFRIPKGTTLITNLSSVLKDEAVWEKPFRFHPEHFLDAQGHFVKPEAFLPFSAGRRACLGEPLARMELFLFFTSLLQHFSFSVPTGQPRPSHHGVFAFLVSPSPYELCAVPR

Sequence of Cytochrome P450 2C9 (P11712 whole entry): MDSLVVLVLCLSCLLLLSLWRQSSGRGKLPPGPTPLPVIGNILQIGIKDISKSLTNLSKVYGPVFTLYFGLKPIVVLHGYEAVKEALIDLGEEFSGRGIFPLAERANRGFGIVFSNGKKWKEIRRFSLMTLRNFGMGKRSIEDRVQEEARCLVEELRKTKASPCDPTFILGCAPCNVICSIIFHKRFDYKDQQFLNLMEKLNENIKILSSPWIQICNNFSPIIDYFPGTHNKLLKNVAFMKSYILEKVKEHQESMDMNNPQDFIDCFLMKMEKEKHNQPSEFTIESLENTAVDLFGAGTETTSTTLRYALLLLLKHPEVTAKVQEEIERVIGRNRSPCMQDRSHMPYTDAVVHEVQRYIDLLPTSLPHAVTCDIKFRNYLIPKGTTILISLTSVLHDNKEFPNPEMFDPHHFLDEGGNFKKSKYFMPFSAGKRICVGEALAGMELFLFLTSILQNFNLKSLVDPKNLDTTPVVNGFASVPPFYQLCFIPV

| Compound | IC50 (Estrogen receptor) | IC50 [1] | Ki [1] | IC50 [2] | Ki [2] | IC50 [3] | Ki [3] | IC50 [4] | Ki [4] | IC50 [5] | Ki [5] | IC50 (Cytochrome P450 2C9) | Ki (Cytochrome P450 2C9) | IC50 (Cytochrome P450 2D6) | Ki (Cytochrome P450 2D6) | IC50 ([2]; read-out: IC50) [µM] | Ki ([2]; read-out: Ki) [µM] |
| --- | --- | --- | --- | --- | --- | --- | --- | --- | --- | --- | --- | --- | --- | --- | --- | --- | --- |
| Clc1ccc(COC(Cn2ccnc2)c2ccc(Cl)cc2Cl)c(Cl)c1 (stereo unspecified) [MICONAZOLE] | Not Active | – | – | – | – | – | – | – | – | – | – | – | – | – | – | – | – |
| CC1CCC(NC(=O)N(CCCl)N=O)CC1 (stereo unspecified) [SEMUSTINE] | Not Active | Not Active | Not Active | Not Active | Not Active | Not Active | Not Active | Not Active | Not Active | Not Active | Not Active | Not Active | Not Active | Not Active | Not Active | – | – |
| O=C1C[C@@H]2OCC=C3CN4CC[C@]56c7ccccc7N1[C@H]5[C@H]2[C@H]3C[C@H]46 [STRYCHNINE] | – | Not Active | Not Active | Not Active | Not Active | Not Active | Not Active | Not Active | Not Active | Not Active | Not Active | – | – | Not Active | Not Active | – | – |
| C[S+]([O-])c1ccc(-c2nc(-c3ccncc3)c(-c3ccc(F)cc3)[nH]2)cc1 (stereo unspecified) [SB-203580] | Not Active | – | – | – | – | – | – | – | – | – | – | – | – | – | – | – | – |
| CC(=N)S [THIOACETAMIDE] | – | Not Active | Not Active | Not Active | Not Active | Not Active | Not Active | Not Active | Not Active | Not Active | Not Active | Not Active | Not Active | Not Active | Not Active | – | – |
| COC(=O)[C@H]1[C@H]2C[C@@H]3c4[nH]c5cc(OC)ccc5c4CCN3C[C@H]2C[C@@H](OC(=O)c2cc(OC)c(OC)c(OC)c2)[C@@H]1OC [RESERPINE] | – | Not Active | Not Active | – | – | Not Active | Not Active | Not Active | Not Active | Not Active | Not Active | Not Active | Not Active | Not Active | Not Active | 3.71 | 3.29 |
| O=c1[nH]c(=O)n(C2CCCO2)cc1F (stereo unspecified) [TEGAFUR] | – | Not Active | Not Active | Not Active | Not Active | Not Active | Not Active | Not Active | Not Active | Not Active | Not Active | Not Active | Not Active | Not Active | Not Active | – | – |
| C[N+](C)(C)CCOC(=O)CCC(=O)OCC[N+](C)(C)C.[Cl-].[Cl-] [SUCCINYLCHOLINE CHLORIDE] | Not Active | Not Active | Not Active | Not Active | Not Active | Not Active | Not Active | Not Active | Not Active | Not Active | Not Active | Not Active | Not Active | Not Active | Not Active | – | – |
| CCCCC(=O)N(Cc1ccc(-c2ccccc2-c2nnn[nH]2)cc1)[C@H](C(=O)O)C(C)C | Not Active | Not Active | Not Active | Not Active | Not Active | Not Active | Not Active | Not Active | Not Active | Not Active | Not Active | Not Active | Not Active | Not Active | Not Active | – | – |
| CN1CCN(C2=Nc3cc(Cl)ccc3Nc3ccccc32)CC1 [CLOZAPINE] | Not Active | – | – | – | – | – | – | – | – | – | – | Not Active | Not Active | Not Active | Not Active | – | – |
| Oc1ccc2c3c1O[C@H]1[C@@H](O)CC[C@@]4(O)[C@@H](C2)N(CC2CCC2)CC[C@]314 [NALBUPHINE] | Not Active | – | – | – | – | – | – | – | – | – | – | – | – | – | – | – | – |
| CN(C)C(=O)C(CCN1CCC(O)(c2ccc(Cl)cc2)CC1)(c1ccccc1)c1ccccc1 [LOPERAMIDE] | Not Active | – | – | – | – | – | – | – | – | – | – | Not Active | Not Active | – | – | – | – |
| O=C(O)c1ccccc1O [SALICYLIC ACID] | Not Active | Not Active | Not Active | Not Active | Not Active | Not Active | Not Active | Not Active | Not Active | Not Active | Not Active | Not Active | Not Active | Not Active | Not Active | – | – |
| Nc1ccc(S(=O)(=O)NC(=O)c2ccccc2)cc1 [SULFABENZAMIDE] | Not Active | Not Active | Not Active | Not Active | Not Active | Not Active | Not Active | Not Active | Not Active | Not Active | Not Active | Not Active | Not Active | Not Active | Not Active | – | – |
| C[C@@](Cc1ccc(O)c(O)c1)(NN)C(=O)O.O [CARBIDOPA] | – | Not Active | Not Active | Not Active | Not Active | Not Active | Not Active | Not Active | Not Active | Not Active | Not Active | Not Active | Not Active | Not Active | Not Active | – | – |
| CCCCCCCCNC(C)C(O)c1ccc(SC(C)C)cc1 (stereo unspecified) [SULOCTIDIL] | Not Active | Not Active | Not Active | – | – | Not Active | Not Active | Not Active | Not Active | Not Active | Not Active | Not Active | Not Active | Not Active | Not Active | 0.171 | 0.152 |
| CN1CCN(CCCN2c3ccccc3Sc3ccc(C(F)(F)F)cc32)CC1 [TRIFLUOPERAZINE] | – | Not Active | Not Active | Not Active | Not Active | Not Active | Not Active | Not Active | Not Active | Not Active | Not Active | – | – | – | – | – | – |
| C[C@]12C=CC(=O)C=C1CC[C@@H]1[C@@H]2C(=O)C[C@@]2(C)[C@H]1CC[C@]2(O)C(=O)CO [PREDNISONE] | Not Active | Not Active | Not Active | Not Active | Not Active | Not Active | Not Active | Not Active | Not Active | Not Active | Not Active | – | – | – | – | – | – |
| OCCOCCN1CCN(C2=Nc3ccccc3Sc3ccccc32)CC1 [QUETIAPINE] | – | – | – | – | – | – | – | – | – | – | – | Not Active | Not Active | Not Active | Not Active | – | – |
| CC(C)NC[C@H](O)COc1cccc2ccccc12 [LEVOPROPRANOLOL] | – | – | – | – | – | – | – | – | – | – | – | Not Active | Not Active | Not Active | Not Active | – | – |
| O=C(O)CCCCC1CCSS1 (stereo not drawn) [LIPOIC ACID, ALPHA] | Not Active | Not Active | Not Active | Not Active | Not Active | Not Active | Not Active | Not Active | Not Active | Not Active | Not Active | Not Active | Not Active | Not Active | Not Active | – | – |
| CC(C)NC[C@@H](O)COc1cccc2ccccc12 [DEXPROPRANOLOL] | – | – | – | – | – | – | – | – | – | – | – | Not Active | Not Active | Not Active | Not Active | – | – |
| Cc1ccc(C(=O)c2ccc(CC(=O)O)n2C)cc1 [TOLMETIN] | Not Active | Not Active | Not Active | Not Active | Not Active | Not Active | Not Active | Not Active | Not Active | Not Active | Not Active | Not Active | Not Active | Not Active | Not Active | – | – |
| CC(=O)OCC(COC(C)=O)OC(C)=O [TRIACETIN] | – | Not Active | Not Active | Not Active | Not Active | Not Active | Not Active | Not Active | Not Active | Not Active | Not Active | Not Active | Not Active | Not Active | Not Active | – | – |
| CN1[C@@H]2CC[C@H]1C[C@@H](OC(c1ccccc1)c1ccccc1)C2 [BENZTROPINE] | Not Active | – | – | – | – | – | – | – | – | – | – | Not Active | Not Active | Not Active | Not Active | – | – |
